O=C(O)c1ccccc1
Conditions | solubility (mole fraction)
in 2-(2-butoxyethoxy)ethanol, 296.15 K | 0.285
in 2-(2-butoxyethoxy)ethanol, 305.15 K | 0.304
in 2-(2-butoxyethoxy)ethanol, 309.65 K | 0.314
in 2-(2-butoxyethoxy)ethanol, 311.15 K | 0.329
in 2-(2-butoxyethoxy)ethanol, 317.15 K | 0.356
in 2-(2-butoxyethoxy)ethanol, 321.15 K | 0.377
in 2-(2-butoxyethoxy)ethanol, 326.15 K | 0.409
in 2-(2-butoxyethoxy)ethanol, 329.65 K | 0.431
in 2-(2-butoxyethoxy)ethanol, 334.15 K | 0.458
in 2-(2-butoxyethoxy)ethanol, 336.15 K | 0.472
in DMAc, 288.65 K | 0.469
in DMAc, 293.35 K | 0.472
in DMAc, 302.15 K | 0.475
in DMAc, 308.65 K | 0.483
in DMAc, 311.65 K | 0.489
in DMAc, 315.15 K | 0.496
in DMAc, 318.15 K | 0.505
in DMAc, 320.65 K | 0.515
in DMAc, 324.15 K | 0.529
in DMAc, 329.15 K | 0.548
in cyclohexanone, 286.15 K | 0.174
in cyclohexanone, 288.95 K | 0.181
in cyclohexanone, 294.15 K | 0.197
in cyclohexanone, 299.15 K | 0.221
in cyclohexanone, 303.65 K | 0.242
in cyclohexanone, 307.95 K | 0.265
in cyclohexanone, 316.15 K | 0.29
in cyclohexanone, 319.15 K | 0.315
in cyclohexanone, 322.15 K | 0.337
in cyclohexanone, 326.15 K | 0.362
in decalin, 296.15 K | 0.0147
in decalin, 301.15 K | 0.0163
in decalin, 306.25 K | 0.0196
in decalin, 311.05 K | 0.0249
in decalin, 318.05 K | 0.0355
in decalin, 325.15 K | 0.0495
in decalin, 329.25 K | 0.0589
in decalin, 332.55 K | 0.0687
in decalin, 337.05 K | 0.0887
in decalin, 338.65 K | 0.103
in diethylene glycol, 294.15 K | 0.0746
in diethylene glycol, 298.15 K | 0.0995
in diethylene glycol, 302.35 K | 0.131
in diethylene glycol, 305.15 K | 0.148
in diethylene glycol, 309.35 K | 0.183
in diethylene glycol, 314.65 K | 0.225
in diethylene glycol, 319.95 K | 0.269
in diethylene glycol, 324.15 K | 0.3
in diethylene glycol, 327.95 K | 0.336
in diethylene glycol, 332.25 K | 0.367
in ethylene glycol, 291.65 K | 0.0449
in ethylene glycol, 298.15 K | 0.0539
in ethylene glycol, 300.95 K | 0.0604
in ethylene glycol, 303.15 K | 0.0689
in ethylene glycol, 306.65 K | 0.0823
in ethylene glycol, 310.15 K | 0.097
in ethylene glycol, 314.15 K | 0.112
in ethylene glycol, 320.15 K | 0.14
in ethylene glycol, 324.15 K | 0.155
in ethylene glycol, 330.65 K | 0.185
in m-xylene, 296.15 K | 0.0649
in m-xylene, 302.15 K | 0.0823
in m-xylene, 306.15 K | 0.0928
in m-xylene, 312.65 K | 0.117
in m-xylene, 315.15 K | 0.129
in m-xylene, 320.15 K | 0.154
in m-xylene, 323.15 K | 0.173
in m-xylene, 330.65 K | 0.22
in m-xylene, 334.15 K | 0.246
in m-xylene, 336.15 K | 0.257
in n-octane, 313.15 K | 0.024
in n-octane, 322.35 K | 0.033
in n-octane, 325.15 K | 0.0365
in n-octane, 329.15 K | 0.0448
in n-octane, 334.15 K | 0.0578
in n-octane, 338.35 K | 0.0718
in n-octane, 342.65 K | 0.0865
in n-octane, 345.15 K | 0.0955
in n-octane, 348.15 K | 0.11
in n-octane, 354.15 K | 0.134
in o-xylene, 297.15 K | 0.0655
in o-xylene, 300.15 K | 0.0735
in o-xylene, 303.15 K | 0.0853
in o-xylene, 308.65 K | 0.101
in o-xylene, 311.15 K | 0.115
in o-xylene, 316.15 K | 0.139
in o-xylene, 321.15 K | 0.162
in o-xylene, 325.15 K | 0.189
in o-xylene, 332.15 K | 0.218
in o-xylene, 334.15 K | 0.239
in p-xylene, 295.15 K | 0.0628
in p-xylene, 299.65 K | 0.0743
in p-xylene, 302.15 K | 0.0819
in p-xylene, 307.15 K | 0.0953
in p-xylene, 311.45 K | 0.115
in p-xylene, 320.65 K | 0.148
in p-xylene, 323.15 K | 0.169
in p-xylene, 326.95 K | 0.191
in p-xylene, 331.15 K | 0.218
in p-xylene, 335.15 K | 0.244
in propionic acid, 291.15 K | 0.146
in propionic acid, 294.65 K | 0.149
in propionic acid, 300.15 K | 0.171
in propionic acid, 304.45 K | 0.19
in propionic acid, 308.15 K | 0.213
in propionic acid, 314.15 K | 0.235
in propionic acid, 317.15 K | 0.251
in propionic acid, 322.15 K | 0.271
in propionic acid, 325.15 K | 0.293
in propionic acid, 330.15 K | 0.332
in sulfolane, 305.15 K | 0.122
in sulfolane, 312.15 K | 0.132
in sulfolane, 314.15 K | 0.138
in sulfolane, 318.65 K | 0.156
in sulfolane, 325.15 K | 0.192
in sulfolane, 329.15 K | 0.216
in sulfolane, 333.65 K | 0.245
in sulfolane, 338.15 K | 0.282
in sulfolane, 343.15 K | 0.315
in sulfolane, 345.15 K | 0.33

Reference: BigSolDB 2.1
